Measurements: PMC10547238, “Discovery of Potent Tetrazole Free Fatty Acid Receptor 2 Antagonists” (Journal of Medicinal Chemistry, 2023)

Key:
hFFA2 = biological target: T1, hFFA2 (Homo sapiens, UniProt O15552); experiment: cAMP assay, antagonist mode, Flp-In T-Rex 293 cells expressing hFFA2-eYFP; assay type: cell-based; conditions: for cAMP pIC50: hFFA2, antagonist mode, propionate at EC80, mean ± SEM, three or more experiments; for LLEcAMP: pIC50, cAMP – ClogP; for IC50 / hFFA2 cAMP (pIC50): supplementary CSV; for IC50: read-out: hFFA2 cAMP (pIC50) (converted)
T1 construct: expressed in transfected cells; host or cells: Flp-In T-Rex 293 cells, doxycycline-induced
T1 sequence (O15552 1-330): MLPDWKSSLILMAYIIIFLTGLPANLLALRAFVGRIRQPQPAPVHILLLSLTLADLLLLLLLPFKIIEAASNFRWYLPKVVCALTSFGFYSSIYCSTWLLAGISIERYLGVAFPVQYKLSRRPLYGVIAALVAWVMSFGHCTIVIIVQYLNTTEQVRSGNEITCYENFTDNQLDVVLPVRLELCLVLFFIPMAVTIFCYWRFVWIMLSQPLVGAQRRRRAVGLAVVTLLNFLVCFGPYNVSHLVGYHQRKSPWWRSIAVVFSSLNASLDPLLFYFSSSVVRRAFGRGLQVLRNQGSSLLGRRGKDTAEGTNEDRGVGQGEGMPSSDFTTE
Protocol: (§1) The activity of the compounds on FFA2 was evaluated in two different functional antagonist assays, both using propionate at EC80 as the agonist. The GTPγS assay reflects receptor activation by directly assessing G protein recruitment, whereas the cAMP assay, performed in whole cells, reflects a physiologically relevant downstream second messenger.
The hFFA2-eYFP and hFFA3-eYFP Flp-In T-Rex 293 cell lines were maintained in Dulbecco’s modified Eagle mMedium (DMEM, ThermoFisher #11965092) supplemented with 10% (v/v) fetal bovine serum, 100 U/mL penicillin, 100 μg/mL streptomycin, 5 μg/mL blasticidin S, and 200 μg/mL hygromycin B and incubated at 37 °C and 5% CO2 in a humidified incubator. Cells were passaged at 70–80% confluency.
To determine the compound’s ability to activate or inhibit the Gi-coupled FFA2 or FFA3, intracellular cAMP concentrations were determined using Flp-In T-Rex293 cells induced to express hFFA2-eYFP or hFFA3-eYFP. Experiments were carried out using a homogeneous time-resolved FRET-based detection kit (CisBio, PerkinElmer #62AM9PEC) according to the manufacturer’s protocol. The day before the assay, 10,000 cells/well were plated in DMEM supplemented with penicillin/streptomycin (100 units/mL and […], respectively), 5 μg/mL blasticidin S, and 200 μg/mL hygromycin B in 96-well cell culture microplates (Greiner Bio-One) and induced to express hFFA2-eYFP or hFFA3-YFP with 100 ng/mL doxycycline.
In antagonist mode, the cells were pre-incubated for 20 min with antagonist test compounds in HBSS together with 50 μM IBMX at rt. Then, the cells were further incubated for 25 min at rt in HBSS with the agonist compound, sodium propionate at EC80 (51.4 μM for FFA2, 13.2 μM for FFA3), and 3 μM forskolin. Reactions were stopped, and the output was measured with an Envision plate reader using a time-resolved fluorescence protocol, measuring the light emission at 620 and 665 nm. All analyses were performed in triplicate and analyzed using GraphPad Prism (version 9).

human FFA2-eYFP = biological target: T2, human FFA2-eYFP (Homo sapiens, UniProt O15552); experiment: [35S]GTPγS incorporation assay, membranes of Flp-In T-Rex 293 cells; assay type: biochemical; conditions: for GTPγS pIC50: hFFA2, propionate at EC80, mean ± SEM, three or more experiments; for LLEGTPγS: pIC50, GTPγS – ClogP
T2 construct: expressed in transfected cells; host or cells: membranes of Flp-In T-Rex 293 cells induced to express the construct
T2 sequence (O15552 1-330): T1 sequence (O15552 1-330)
Protocol: as §1
Functional activity of the compounds were tested in a [^35S]GTPγS incorporation assay using membranes of Flp-In T-Rex 293 cells induced to express human FFA2-eYFP. […] The reaction was initiated by addition of [^35S]GTPγS (100 nCi per reaction) containing 1 μM GDP and incubated at 30 °C for 60 min. The reaction was terminated by rapid vacuum filtration through GF/C glass fiber filter-bottom 96-well microplates (PerkinElmer Life Sciences, Beaconsfield, UK) using a UniFilter FilterMate Harvester (PerkinElmer). Unbound radioligands were removed from filters by three washes with ice-cold PBS. MicroScint-20 (PerkinElmer) was added to dried filters, and [^35S]GTPγS binding was quantified by liquid scintillation spectroscopy.

cAMP pIC50 (hFFA2)	LLEcAMP (hFFA2)	IC50 (hFFA2) [nM]	GTPγS pIC50 (human FFA2-eYFP)	LLEGTPγS (human FFA2-eYFP)	hFFA2 cAMP (pIC50) (hFFA2)	decrease in potency compared to 16a (hFFA2; cAMP assay) [fold]	decrease in potency compared to 16a (human FFA2-eYFP; GTPγS assay) [fold]	potency decrease on elongated tetrazole linker (hFFA2; vs 16e, cAMP assay)	potency decrease on elongated tetrazole linker (human FFA2-eYFP; vs 16e, GTPγS assay)	SMILES
7.89 ± 0.20	5.33	11.7	8.36 ± 0.09	5.80						O=C(Cc1ccccc1)N[C@@H](Cc1ccc(C(F)(F)F)cc1)Cc1nnn[nH]1 [Compound 16a, (S)-N-(1-(1H-Tetrazol-5-yl)-3-(4-(trifluoromethyl)phenyl)propan-2-yl)-2-phenylacetamide]
7.96 ± 0.03	5.39		8.06 ± 0.06	5.49	7.95 ± 0.12					O=C(N[C@@H](Cc1ccc(C(F)(F)F)cc1)Cc1nnn[nH]1)C1Cc2ccccc21 (stereo partly drawn) [Compound 16b, N-((S)-1-(1H-Tetrazol-5-yl)-3-(4-(trifluoromethyl)phenyl)propan-2-yl)bicyclo[4.2.0]octa-1(6),2,4-triene-7-carboxamide]
8.26 ± 0.16	5.55		8.13 ± 0.04	5.42						O=C(Cc1cccc(F)c1)N[C@@H](Cc1ccc(C(F)(F)F)cc1)Cc1nnn[nH]1 [Compound 16c, (S)-N-(1-(1H-Tetrazol-5-yl)-3-(4-(trifluoromethyl)phenyl)propan-2-yl)-2-(3-fluorophenyl)acetamide]
6.91 ± 0.07	5.09	102	7.47 ± 0.04	5.65						O=C(Cc1cccc(F)c1)N[C@@H](Cc1ccccc1)Cc1nnn[nH]1 [Compound 16d, (S)-2-(3-Fluorophenyl)-N-(1-phenyl-3-(1H-tetrazol-5-yl)propan-2-yl)acetamide]
8.08 ± 0.11	4.80	9.33	8.07 ± 0.04	4.79						O=C(Cc1ccc(Cl)cc1)N[C@@H](Cc1ccc(C(F)(F)F)cc1)Cc1nnn[nH]1 [Compound 16f, (S)-N-(1-(1H-Tetrazol-5-yl)-3-(4-(trifluoromethyl)phenyl)propan-2-yl)-2-(4-chlorophenyl)acetamide]
7.68 ± 0.11	4.23	15.8	8.05 ± 0.21	4.60						O=C(Cc1cccc(C(F)(F)F)c1)N[C@@H](Cc1ccc(C(F)(F)F)cc1)Cc1nnn[nH]1 [Compound 16i, (S)-N-(1-(1H-Tetrazol-5-yl)-3-(4-(trifluoromethyl)phenyl)propan-2-yl)-2-(3-(trifluoromethyl)phenyl)acetamide]
7.77 ± 0.12	4.76	15.8	8.05 ± 0.19	5.04						CCOc1cccc(CC(=O)N[C@@H](Cc2ccc(C(F)(F)F)cc2)Cc2nnn[nH]2)c1 [Compound 16m, (S)-N-(1-(1H-Tetrazol-5-yl)-3-(4-(trifluoromethyl)phenyl)propan-2-yl)-2-(3-ethoxyphenyl)acetamide]
7.44 ± 0.18	3.85	46.8	7.50 ± 0.23	3.91						O=C(Cc1cccc(OC(F)(F)F)c1)N[C@@H](Cc1ccc(C(F)(F)F)cc1)Cc1nnn[nH]1 [Compound 16n, (S)-N-(1-(1H-Tetrazol-5-yl)-3-(4-(trifluoromethyl)phenyl)propan-2-yl)-2-(3-(trifluoromethoxy)phenyl)acetamide]
5.24 ± 0.17	2.35		5.78 ± 0.14	2.89	5.22 ± 0.18					O=C(CC1CCCC1)N[C@@H](Cc1ccc(C(F)(F)F)cc1)Cc1nnn[nH]1 [Compound 16o, (S)-N-(1-(1H-Tetrazol-5-yl)-3-(4-(trifluoromethyl)phenyl)propan-2-yl)-2-cyclopentylacetamide]
6.36 ± 0.12	3.45	355	6.37 ± 0.44	3.46						CCCCCC(=O)N[C@@H](Cc1ccc(C(F)(F)F)cc1)Cc1nnn[nH]1 [Compound 16p, (S)-N-(1-(1H-Tetrazol-5-yl)-3-(4-(trifluoromethyl)phenyl)propan-2-yl)hexanamide]
6.78 ± 0.14	3.89	186	7.19 ± 0.04	4.30						O=C(CCc1ccccc1)N[C@@H](Cc1ccc(C(F)(F)F)cc1)Cc1nnn[nH]1 [Compound 16q, (S)-N-(1-(1H-Tetrazol-5-yl)-3-(4-(trifluoromethyl)phenyl)propan-2-yl)-3-phenylpropanamide]
5.93 ± 0.15	4.86	1450	6.71 ± 0.17	5.64						O=C(Cc1ccccn1)N[C@@H](Cc1ccc(C(F)(F)F)cc1)Cc1nnn[nH]1 [Compound 16r, (S)-2-(2-((1-(1H-Tetrazol-5-yl)-3-(4-(trifluoromethyl)phenyl)propan-2-yl)amino)-2-oxoethyl)pyridin-1-ium 2,2,2-trifluoroacetate]
6.89 ± 0.10	5.82	91.2	7.29 ± 0.07	6.22		7	7			O=C(Cc1cccnc1)N[C@@H](Cc1ccc(C(F)(F)F)cc1)Cc1nnn[nH]1 [Compound 16s, (S)-3-(2-((1-(1H-Tetrazol-5-yl)-3-(4-(trifluoromethyl)phenyl)propan-2-yl)amino)-2-oxoethyl)pyridin-1-ium 2,2,2-trifluoroacetate]
5.74 ± 0.13	4.67	2950	6.47 ± 0.15	5.40						O=C(Cc1ccncc1)N[C@@H](Cc1ccc(C(F)(F)F)cc1)Cc1nnn[nH]1 [Compound 16t, (S)-N-(1-(1H-Tetrazol-5-yl)-3-(4-(trifluoromethyl)phenyl)propan-2-yl)-2-(pyridin-4-yl)acetamide]
6.98 ± 0.13	5.20	95.5	7.20 ± 0.14	5.42						O=C(Cc1ccc(Cl)nc1)N[C@@H](Cc1ccc(C(F)(F)F)cc1)Cc1nnn[nH]1 [Compound 16v, (S)-5-(2-((1-(1H-Tetrazol-5-yl)-3-(4-(trifluoromethyl)phenyl)propan-2-yl)amino)-2-oxoethyl)-2-chloropyridin-1-ium 2,2,2-trifluoroacetate]
7.55 ± 0.14	3.75	30.9	7.72 ± 0.12	3.92				5–6 fold	5–6 fold	O=C(Cc1cccc(Cl)c1)N[C@H](CCc1nnn[nH]1)Cc1ccc(C(F)(F)F)cc1 [Compound 21, (R)-N-(4-(1H-Tetrazol-5-yl)-1-(4-(trifluoromethyl)phenyl)butan-2-yl)-2-(3-chlorophenyl)-acetamide]
